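Tested at 5 concentrations; 48 h exposure; 96-well plates; endpoints linearly interpolated, else capped at highest concentration. GI50 marks 50% less growth.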 Calls of active or inactive are those of the source. Cut-off read from the data, not from the text of the source: active = GI50 up to about 1.1 µM and inactive = higher.
Key:
Test in all cases: growth of human tumour cells (NCI), 48 h
[1] = system: SF-268
[2] = system: TK-10
[3] = system: HL-60
[4] = system: HOP-92
[5] = system: HT-29
[6] = system: KM12
[7] = system: A549
[8] = system: SF-295
[9] = system: SF-539
[10] = system: SR
[11] = system: M14
[12] = system: OVCAR-5
[13] = system: CAKI-1
[14] = system: HCT-15
[15] = system: SK-MEL-2
[16] = system: MDA-N
[17] = system: PC-3
[18] = system: Hs-578T

| SMILES | GI50 [1] | GI50 [2] | GI50 [3] | GI50 [4] | GI50 [5] | GI50 [6] | GI50 [7] | GI50 [8] | GI50 [9] | GI50 [10] | GI50 [11] | GI50 [12] | GI50 [13] | GI50 [14] | GI50 [15] | GI50 [16] | GI50 [17] | GI50 [18] |
| --- | --- | --- | --- | --- | --- | --- | --- | --- | --- | --- | --- | --- | --- | --- | --- | --- | --- | --- |
| O=C1O/C(=C(/c2ccc(Cl)cc2)c2nc3ccccc3[nH]2)C(O)=C1c1ccc(Cl)cc1 | 2.46 µM (inactive) | 2.96 µM (inactive) | 2 µM (inactive) | 1.32 µM (inactive) | 2.7 µM (inactive) | 3.29 µM (inactive) | 2.4 µM (inactive) | 3.99 µM (inactive) | 2.65 µM (inactive) | 1.92 µM (inactive) | 4.06 µM (inactive) | 2.43 µM (inactive) | 2.23 µM (inactive) | – | – | – | – | – |
| CCOC(=O)Nc1ccc(S(=O)(=O)I)cc1.CCOC(=O)Nc1ccc(S(=O)(=O)I)cc1.CNC(=O)N=O.NC(=O)OCCCl | > 100 µM (inactive) | > 100 µM (inactive) | 45.3 µM (inactive) | 40.5 µM (inactive) | 69 µM (inactive) | > 100 µM (inactive) | > 100 µM (inactive) | 78 µM (inactive) | > 100 µM (inactive) | > 100 µM (inactive) | > 100 µM (inactive) | – | > 100 µM (inactive) | 70.8 µM | 43.6 µM (inactive) | – | – | – |
| COc1ccc(/C=C/c2ccnc3ccccc23)cc1OC | 14 µM (inactive) | 15.6 µM (inactive) | 11.3 µM (inactive) | – | 12.4 µM (inactive) | 14.7 µM (inactive) | 15.1 µM (inactive) | 13.8 µM (inactive) | 15.8 µM (inactive) | 25.5 µM (inactive) | 20 µM (inactive) | 12.9 µM (inactive) | 15.8 µM (inactive) | 15.2 µM | 19.4 µM (inactive) | 14.1 µM (inactive) | 15.8 µM (inactive) | 18.1 µM (inactive) |
| CCOC(=O)/C(=C\c1ccc(O)c(OC)c1)C(=O)c1ccccc1 | 9.62 µM (inactive) | 25.9 µM (inactive) | 10.4 µM (inactive) | 21.3 µM (inactive) | 24.7 µM (inactive) | 11.6 µM (inactive) | 18.2 µM (inactive) | 18.9 µM (inactive) | 13.8 µM (inactive) | 11 µM (inactive) | 19.1 µM (inactive) | 26.8 µM (inactive) | 23.9 µM (inactive) | 8.75 µM | 12.5 µM (inactive) | – | – | – |
| COC(=O)C1=C(SC)SC2(C(=O)OC)C3C=C(C)C4C(N13)C42C(=O)OC (configuration not stated) | > 100 µM (inactive) | > 100 µM (inactive) | > 100 µM (inactive) | – | > 100 µM (inactive) | – | > 100 µM (inactive) | > 100 µM (inactive) | > 100 µM (inactive) | > 100 µM (inactive) | > 100 µM (inactive) | > 100 µM (inactive) | > 100 µM (inactive) | > 100 µM | > 100 µM (inactive) | – | – | – |
| COc1ccc(C(=O)O/N=C2/CCC/C2=C\c2ccccc2)cc1 | > 81.8 µM (inactive) | > 91.6 µM (inactive) | > 85.9 µM (inactive) | > 100 µM (inactive) | > 100 µM (inactive) | > 100 µM (inactive) | > 100 µM (inactive) | > 65.8 µM (inactive) | > 59.3 µM (inactive) | > 100 µM (inactive) | > 100 µM (inactive) | > 100 µM (inactive) | > 100 µM (inactive) | > 100 µM | > 100 µM (inactive) | – | – | – |
| C/C(C=O)=C1\C(O)C[C@]1(C)C1CC(C)(C)CC1O (some centres not stated) | > 100 µM (inactive) | > 100 µM (inactive) | 91 µM (inactive) | 74.1 µM (inactive) | > 100 µM (inactive) | > 100 µM (inactive) | > 100 µM (inactive) | 41.4 µM (inactive) | 49.1 µM (inactive) | 47 µM (inactive) | 47.3 µM (inactive) | > 100 µM (inactive) | > 100 µM (inactive) | – | > 100 µM (inactive) | – | – | – |
| CN(C)c1ccc(N=O)c(O)c1.CN(C)c1ccc(N=O)c(O)c1.[SiH4] | 6.98 µM (inactive) | 14.1 µM (inactive) | 4.41 µM (inactive) | 3.82 µM (inactive) | 6.67 µM (inactive) | 14.6 µM (inactive) | 12.4 µM (inactive) | 14.3 µM (inactive) | 14.2 µM (inactive) | 11 µM (inactive) | 11.7 µM (inactive) | 24 µM (inactive) | 8.55 µM (inactive) | – | – | – | – | – |
| CCSc1nc(-c2ccc(OC)cc2)c(C#N)c(=O)n1C1OCC(OC(C)=O)C(OC(C)=O)C1OC(C)=O (configuration not stated) | > 100 µM (inactive) | > 100 µM (inactive) | – | > 100 µM (inactive) | > 100 µM (inactive) | > 100 µM (inactive) | > 100 µM (inactive) | > 100 µM (inactive) | > 100 µM (inactive) | > 100 µM (inactive) | > 100 µM (inactive) | > 100 µM (inactive) | > 100 µM (inactive) | > 100 µM | > 100 µM (inactive) | – | – | – |
| OCCCc1cnco1 | > 100 µM (inactive) | > 100 µM (inactive) | > 100 µM (inactive) | > 100 µM (inactive) | > 100 µM (inactive) | > 100 µM (inactive) | > 100 µM (inactive) | > 100 µM (inactive) | > 100 µM (inactive) | > 100 µM (inactive) | > 100 µM (inactive) | > 100 µM (inactive) | > 100 µM (inactive) | > 100 µM | – | – | – | – |
| COc1cc(/C=C2/C(=O)N(C(=O)OCc3ccccc3)C(Cc3cc(OC)c(OC)c(C)c3OC)C(=O)N2Cc2ccccc2)c(OC)c(C)c1OC (configuration not stated) | > 100 µM (inactive) | > 100 µM (inactive) | 7.52 µM (inactive) | 2.64 µM (inactive) | > 100 µM (inactive) | > 100 µM (inactive) | > 100 µM (inactive) | > 100 µM (inactive) | > 100 µM (inactive) | 41.1 µM (inactive) | > 100 µM (inactive) | > 100 µM (inactive) | > 100 µM (inactive) | – | 87.3 µM (inactive) | – | – | – |
| O=C(/C=C/c1ccccc1F)C(c1ccccc1)c1ccccc1 | 3.11 µM (inactive) | 4.72 µM (inactive) | 3.07 µM (inactive) | 2 µM (inactive) | 2.75 µM (inactive) | 3.95 µM (inactive) | 3.76 µM (inactive) | 2.06 µM (inactive) | 2.2 µM (inactive) | 3.41 µM (inactive) | 2.62 µM (inactive) | – | 5.36 µM (inactive) | 4.31 µM | 2.51 µM (inactive) | – | – | – |
| COC1=CC(O)(CC(N)=O)c2ccccc2C1=O (configuration not stated) | > 100 µM (inactive) | > 100 µM (inactive) | > 100 µM (inactive) | > 100 µM (inactive) | > 100 µM (inactive) | > 100 µM (inactive) | > 100 µM (inactive) | > 100 µM (inactive) | – | > 100 µM (inactive) | > 100 µM (inactive) | > 100 µM (inactive) | > 100 µM (inactive) | > 100 µM | > 100 µM (inactive) | – | – | – |
| COc1cc2c(cc1OC)C(C#N)(Cc1ccccc1)N(C(=O)c1ccccc1)C=C2 (configuration not stated) | > 100 µM (inactive) | > 100 µM (inactive) | 36.4 µM (inactive) | 58.2 µM (inactive) | 60.8 µM (inactive) | 60.7 µM (inactive) | – | > 100 µM (inactive) | > 100 µM (inactive) | 45.7 µM (inactive) | > 100 µM (inactive) | > 100 µM (inactive) | – | 38.8 µM | > 100 µM (inactive) | – | – | – |

Reference: ChEMBL document CHEMBL1201862, “PubChem BioAssay data set” (2004)
